Measurements from ChEMBL document CHEMBL1671730, “Rapid and sensitive liquid chromatography/mass spectrometry assay for caspofungin in human aqueous humor” (Antimicrob Agents Chemother, 2010).

Columns and labels:
Format in all cases: ADME, organism-based, Aqueous humor of eyeball
Settings in all cases: in vivo
[1] = organism: Homo sapiens; assay: Drug level in human aqueous humor sample measured on basis of intraday target compound concentration of 4000 ng/ml by LC/MS method
[2] = organism: Homo sapiens; assay: Drug level in human aqueous humor sample measured on basis of intraday target compound concentration of 30 ng/ml by LC/MS method
[3] = organism: Homo sapiens; assay: Drug level in human aqueous humor sample measured on basis of interday target compound concentration of 30 ng/ml by LC/MS method
[4] = organism: Homo sapiens; assay: Drug level in human aqueous humor sample measured on basis of interday target compound concentration of 4000 ng/ml by LC/MS method
[5] = organism: Homo sapiens; assay: Drug level in human aqueous humor sample measured on basis of intraday target compound concentration of 300 ng/ml by LC/MS method
[6] = organism: Homo sapiens; assay: Drug level in human aqueous humor sample measured on basis of interday target compound concentration of 300 ng/ml by LC/MS method

- Drug uptake [1]: 3986 ng/mL
- Drug uptake [2]: 26.9 ng/mL
- Drug uptake [3]: 31.4 ng/mL
- Drug uptake [4]: 3965 ng/mL
- Drug uptake [5]: 280 ng/mL
- Drug uptake [6]: 282 ng/mL
SMILES: CC[C@H](C)C[C@H](C)CCCCCCCCC(=O)N[C@H]1C[C@@H](O)[C@@H](NCCN)NC(=O)[C@@H]2[C@@H](O)CCN2C(=O)[C@H]([C@H](O)CCN)NC(=O)[C@H]([C@H](O)[C@@H](O)c2ccc(O)cc2)NC(=O)[C@@H]2C[C@@H](O)CN2C(=O)[C@H]([C@@H](C)O)NC1=O [CASPOFUNGIN]
